Results from patent US9512176B2, “Age inhibitors” (Centre National de la Recherche Scientifique, priority 2005, dated 2016).
Blank lines part the entries; values can stand above or below the compound they belong to. Non-standard residues stand in square brackets, D forms with d. Residues, ends and D or L forms follow the SMILES beside them. Dap = NC[C@H](N)C(=O)O

Assays:
ribonuclease A [1] = assay: Enzymatic activity of ribonuclease A after treatment with methylglyoxal and inhibitors (methylene blue RNA staining); type: biochemical; settings: ribonuclease A treated with methylglyoxal (MG) + inhibitor in equimolar quantity, 37° C.; control RNase 100, RNase + methylglyoxal 10.11%
Description: (§1) Ribonuclease A and lysozyme (10 mg/ml) are incubated in the presence of methylglyoxal (10 mM) or in the presence of methylglyoxal and one of the inhibitors according to the present invention in an equimolar quantity at 37° C. After 48 hours of incubation, the proteins are analyzed by polyacrylamide gel electrophoresis (8%-16% SDS PAGE gel).
The enzymatic activity of ribonuclease A after treatment with methylglyoxal and the various inhibitors according to the present invention is measured using the methylene blue RNA staining technique of Greiner-Stöffele et al. (Anal. Biochem. (1996) 240, 24).

[2] = Battah et al. 2002; cited from earlier work
EA.hy 926 cell line = assay: Growth of EA.hy 926 endothelial cells with MG scavengers and/or methylglyoxal (MTT); type: cell-based, human; settings: for viability at 1000 µM: Homo sapiens, EA.hy 926, scavenger 1 mM + methylglyoxal 600 μM, relative to untreated control cells, MG alone 24, read-out: Cells + MG scavengers + Methylglyoxal (B); for viability at 1000 µM / Cells + MG scavengers (A): 48 hours, mean of 3 experiments; for Difference (B) − (A): Table 2, cells with scavenger + MG minus cells with scavenger alone; for Cells + MG scavengers (A): scavenger 1 mM, no methylglyoxal, number of cells relative to untreated control cells; for effect against suppression of cell growth by MG: scavenger + methylglyoxal
Description: The cells used for the test are from the EA.hy 926 cell line, which are endothelial cells obtained by the hybridization of human umbilical vein endothelial cells (HUVECs) with lung cancer cells (A549). The EA.hy 926 endothelial cells are incubated in Dulbecco's modified Eagle's Medium (DMEM) enriched with 10% fetal calf serum. The cells are incubated in 12-well plates. Each well initially contains 100,000 cells. Cell growth is achieved by incubating the cells in 2 ml of culture medium after adding or not adding the various potential inhibitors (1 mM) and/or methylglyoxal (600 μM) for 48 hours at 37° C. in a moist atmosphere with 5% CO2.
The number of cells is evaluated in the following way:
The cells are stained using the (4,5-dimethylthiazol-2-yl)-2,5-diphenyltetrazolium bromide (MTT) assay. MTT penetrates in the cell where it is converted into formazan. The quantity of formazan formed is proportional to the number of living cells.
The results are expressed as a relative percentage of the number of cells after treatment compared to the number of control cells without treatment [100*OD (treated cells)/OD (control cells)]. Detection is carried out by UV/visible spectrophotometry at 570 nm.
Principle: MTT (yellow) penetrates the cell and is converted into an insoluble blue compound, formazan, by cleavage of its tetrazolium rings by the mitochondrial dehydrogenase enzymes of living cells. Formazan is solubilized by isopropanol. The number of cells is proportional to the quantity of formazan formed and its absorbance.

ribonuclease A [3] = assay: SDS PAGE electrophoresis of ribonuclease A incubated with methylglyoxal and inhibitor; type: biochemical
Description: as §1
The AGE inhibitors according to the present invention, namely L-DAPA-L-Leu (example 1) and L-DAPA-L-Ile (example 18), or AG (10 mM) are incubated with MG and ribonuclease A for […] at 37° C.

Human insulin = assay: Modification of insulin by methylglyoxal (HPLC); type: biochemical; settings: insulin 0.034 mM, methylglyoxal 3.4 mM, scavenger 4.08 mM, pH 7.45, 37° C.
Description: FIG. 1 presents the comparative effects of dicarbonyl scavengers in the form of dihydrochloride according to the present invention and the comparison with DAPA on the modification of insulin (Ins) by methylglyoxal (MG). The percentage of insulin is indicated following incubation with methylglyoxal in the presence or absence of dicarbonyl scavengers. Insulin (0.034 mM) is incubated in vitro in a 10 mM phosphate buffer, pH 7.45 (containing 0.1 M NaCl) with methylglyoxal (3.4 mM) in the presence of dicarbonyl scavengers (4.08 mM) for 21 hours at 37° C. Insulin concentration is measured by HPLC (same conditions as in FIG. 3).
FIGS. 3 to 8 present the results obtained by HPLC for two compounds according to the present invention, L-DAPA-L-Leu (example 1) and L-DAPA-L-Val (example 23), on insulin modifications induced by methylglyoxal. It can be observed that these modifications are prevented. The HPLC conditions are as follows: C-18, Symmetry 300 (4.6×250 mm) column, injection volume 100 μl of reaction mixture; flow 1 ml/min; temperature 40° C.; solvent A: H2O+0.1% TFA; solvent B: 60/40 CH3CN/H2O+0.1% TFA; linear gradient of 50% B to 55% B in 15 minutes; detection: UV at 215 nm: PDA (chromatograms extracted at 220 nm).
Human insulin (Ins) is incubated with methylglyoxal (MG) under physiological conditions. After 24 hours, the insulin is completely modified, as illustrated in FIG. 1 (Ins+MG).
On the other hand, insulin is incubated with methylglyoxal in the presence of an equimolar quantity of the AGE inhibitors according to the present invention under physiological conditions.

[4] = Mutagenicity of DAPA (statement, no method given); settings: no test described
RNase A = RNase A modifications induced by methylglyoxal (HPLC); type: biochemical; settings: RNase A 0.08 mM, methylglyoxal 32 mM, compound 38 mM, 21 hours at 37° C.
Description: FIGS. 11 to 13 present the results obtained by HPLC for three compounds according to the present invention, L-DAPA-L-Ile (example 18), L-DAPA-L-Val (example 23) and L-DAPA-L-Leu (example 1), on RNase A modifications induced by methylglyoxal. HPLC conditions are as follows: C-18, Symmetry 300 (4.6×250 mm) column, injection volume 100 μl of reaction mixture diluted to 1/10; flow 1 ml/min; temperature 40° C.; solvent A: H2O+0.1% TFA; solvent B: 60/40 CH3CN/H2O+0.1% TFA; linear gradient of 20% B to 80% B in 20 minutes; detection: UV at 215 nm: PDA (chromatograms extracted at 215 nm).

lysozyme = assay: SDS PAGE electrophoresis of lysozyme incubated with methylglyoxal and inhibitor; type: biochemical; settings: lysozyme 10 mg/ml, methylglyoxal 10 mM, inhibitor equimolar, 37° C., 48 hours
Description: as §1

somatostatin-14 = assay: Somatostatin-14 modifications induced by methylglyoxal (HPLC); type: biochemical; settings: somatostatin-14 0.03 mm, methylglyoxal 3.6 mM, compound 4.3 mM, 24 hours at 37° C.
Description: FIGS. 9 and 10 present the results obtained by HPLC for two compounds according to the present invention, L-DAPA-L-Leu (example 1) and L-DAPA-L-Val (example 23), on somatostatin-14 modifications induced by methylglyoxal. HPLC conditions are as follows: C-18, Symmetry 300 (4.6×250 mm) column, injection volume 100 μl of reaction mixture; flow 1 ml/min; solvent A: H2O+0.1% TFA; solvent B: 80/20 CH3CN/H2O+0.1% TFA; linear gradient: from 20% B to 60% B in 15 minutes and isocratic from 60% B for 10 minutes; ambient temperature; detection: PDA (chromatograms extracted at 215 nm).
In these figures, (a) represents the results of somatostatin-14 alone; (b) represents the results of somatostatin-14+methylglyoxal; (c) represents the results of somatostatin-14+methylglyoxal+L-DAPA-L-Val (example 23) and (d) represents the results of somatostatin-14+methylglyoxal+L-DAPA-L-Leu (example 1).

[5] = tested on: seven strains of Salmonella (six mixed strains, strain TA98); assay: Ames test with and without human liver S9 fractions; type: cell-based; set-up: key to Six mixed strains / Strain TA98: −: non-mutagenic; +: mutagenic; settings: for Six mixed strains / Strain TA98: mixture with methylglyoxal, 10/1/0.1 μM
Description: An Ames test was performed with L-DAPA-L-Leu (example 1) and L-DAPA-L-Val (example 23) alone and in combination with methylglyoxal on human liver S9 fractions and on seven strains of Salmonella.
The concentrations used in the Ames test were as follows: • L-DAPA-L-Leu alone or L-DAPA-L-Val alone: 10 μM, 1 μM and 0.1 μM. • L-DAPA-L-Leu/methylglyoxal mixture or L-DAPA-L-Val/methylglyoxal mixture: 10 μM, 1 μM and 0.1 μM. • Methylglyoxal: 10 μM.

Cells + MG scavengers (A) (EA.hy 926 cell line): 97%
Compound: N=C(N)NN [Aminoguanidine, aminoguanidine, reference compound]
Enzymatic activity (%) (ribonuclease A [1]): 70.52% | better scavenger of methylglyoxal compared with metformin (factor) [2]: 450 | viability at 1000 µM (EA.hy 926 cell line): 92% | Difference (B) − (A) (EA.hy 926 cell line): −5 | effect against suppression of cell growth by MG (EA.hy 926 cell line): suppresses this process in a spectacular manner | protecting effect against structural modifications of ribonuclease A induced by MG, compared with the inhibitors of the invention (ribonuclease A [3]; 10 mM, 40 hours at 37° C.): much less effective

Cells + MG scavengers (A) (EA.hy 926 cell line): 83%
Compound: NCC(N)C(=O)O [D-DAPA, 2,3-diaminopropionic acid, reference compound]
Enzymatic activity (%) (ribonuclease A [1]): 20.32% | modification of insulin by methylglyoxal (Human insulin): prevents the modification of insulin by MG | mutagenicity [4]: appears to be mutagenic | cell survival when incubated with MG (EA.hy 926 cell line): 68% | viability at 1000 µM (EA.hy 926 cell line): 68% | Difference (B) − (A) (EA.hy 926 cell line): −15 | toxicity with respect to EA cells (EA.hy 926 cell line; compound alone, 1 mM): cytotoxicity is higher

Compound: CC(C)[C@H](NC(=O)[C@@H](N)CN)C(=O)O [example 23, L-DAPA-L-Val.2HCl] (H-[Dap]-Val-OH)
Enzymatic activity (%) (ribonuclease A [1]): 90.77% | modification of insulin by methylglyoxal (Human insulin): prevented | RNase A modifications induced by methylglyoxal (RNase A): prevent the modifications to RNase A | protection from structural modifications (dimer form) caused by methylglyoxal (lysozyme): provides protection | somatostatin-14 modifications induced by methylglyoxal (somatostatin-14): prevent the modifications induced by methylglyoxal | cell survival when incubated with MG (EA.hy 926 cell line): 93% | viability at 1000 µM (EA.hy 926 cell line): 93% | Difference (B) − (A) (EA.hy 926 cell line): −1 | Cells + MG scavengers (A) (EA.hy 926 cell line): 94% | effect against suppression of cell growth by MG (EA.hy 926 cell line): same trend | difference between number of cells growing with compound and with MG and compound (EA.hy 926 cell line; values in brackets): −3 | Six mixed strains ([5]; Human S9: No): − | Strain TA98 ([5]; Human S9: No): − | Six mixed strains ([5]; Human S9: Yes (metabolites)): − | Strain TA98 ([5]; Human S9: Yes (metabolites)): − | mutagenicity ([5]; alone or in combination with methylglyoxal, TA98, mixed strains, human liver S9 fractions): neither substance (L-DAPA-L-Leu or L-DAPA-L-Val) was mutagenic | protection from structural modifications (dimer form) caused by methylglyoxal (ribonuclease A [3]; ribonuclease A 10 mg/ml, methylglyoxal 10 mM, inhibitor equimolar, 37° C., 48 hours): provides protection
